Data reported in patent US20070048247A1, “Deodorizing tablets” (Kimberly-Clark Worldwide, Inc., priority 2005, published 2007).

Tests used:
[1] = Example 4 urine odor panel ranking; design: species or system Human; conditions: for Average Rankings, Avg. Score / Urine Odor Ranking 2 (number of panelists) / Urine Odor Ranking 4 (number of panelists) / Urine Odor Ranking 6 (number of panelists) / Urine Odor Ranking 7 (number of panelists) / Urine Odor Ranking 3 (number of panelists) / Urine Odor Ranking 5 (number of panelists) / Urine Odor Ranking 1 (number of panelists): 8 millimolar in urine, scale 1 to 7, 7 most malodorous
Text: Powders of the aforementioned quinone compounds (commercially available from Sigma-Aldrich Chemical Co., Inc. of St. Louis, Missouri and Noveon Hilton Davis, Inc. of Cincinnati, Ohio) were weighed and placed into the mason jars containing 50 milliliters of urine so that the final concentration of the powder was 8 millimolar (equivalent to 0.5 wt. %).
To aid in the assessment of the quinone compounds, panelists were asked to rank the mason jars from least to most malodorous (on a scale from 1 to 7, with 7 being the most malodors). The results are set forth below in Tables 12 and 13.

[2] = Example 7 urine odor panel ranking (16 millimolar); design: species or system Human; conditions: 16 millimolar in urine, 1 least, 10 most urine malodor
Experimental: The effectiveness of various quinone compounds in reducing urine odor was compared. […] Human female urine was initially collected and pooled at Kimberly-Clark Corporation. The pooled urine was added to mason jars in 50-milliliter aliquots using an automated pipette aid. Powders of the aforementioned quinone compounds (commercially available from Sigma-Aldrich Chemical Co., Inc. of St. Louis, Missouri and Noveon Hilton Davis, Inc. of Cincinnati, Ohio) were weighed and placed into the mason jars containing 50 milliliters of urine so that the final concentration of the powder was 16 millimolar (equivalent to 1 wt. %). The mason jars were placed in an incubator overnight at 37° C. The experimental setup is set forth in more detail below in Table 21.
Jars were wrapped in foil and placed in an incubator at 37° C. overnight. The jars were divided into four groups (C-F), each sharing the same control jar of urine alone (no powder). Assessments were conducted the following day by asking panelists to rate each jar from 1 (least urine malodor) to 10 (most urine malodor).

[3] = Example 5 urine odor panel ranking; design: species or system Human; conditions: for Average Rankings (Group B), Avg. Score / Urine Odor Ranking 2 (number of panelists) / Urine Odor Ranking 4 (number of panelists) / Urine Odor Ranking 7 (number of panelists) / Average Rankings (Group A), Avg. Score / Urine Odor Ranking 5 (number of panelists) / Urine Odor Ranking 6 (number of panelists) / Urine Odor Ranking 8 (number of panelists) / Urine Odor Ranking 1 (number of panelists): 8 mM in urine, 1 least, 8 most urine malodor
Experimental: Assessments were conducted the following day by asking panelists to rate each jar from 1 (least urine malodor) to 8 (most urine malodor). The results are set forth below in Tables 15-18.

[4] = Solubility of powder in urine
[5] = Example 6 urine odor panel ranking; design: species or system Human; conditions: as Example 5, 1 least, 8 most urine malodor
Text: The quinone compounds chosen for this example were Alizarin Blue Black B, Remazol Brilliant Blue R and Acid Green 25. The results are set forth below in Tables 19 and 20.

[6] = Example 5, 8 mM in 50 milliliters of urine
[7] = Example 7, 16 mM in 50 milliliters of urine

Compound: O=C1c2ccccc2C(=O)c2c(O)ccc(O)c21 [1,4-Dihydroxyanthraquinone, 1,4-dihydroxyanthraquinone]
- Average Rankings, Avg. Score [1]: 4.75
- Urine Odor Ranking 2 (number of panelists) [1]: 1
- Urine Odor Ranking 4 (number of panelists) [1]: 1
- Urine Odor Ranking 6 (number of panelists) [1]: 1
- Urine Odor Ranking 7 (number of panelists) [1]: 1

Compound: Nc1ccc(O)c2c1C(=O)c1ccccc1C2=O [1-Amino-4-Hydroxyanthraquinone, 1-amino-4-hydroxyanthraquinone]
- Average Rankings, Avg. Score [1]: 5
- Urine Odor Ranking 3 (number of panelists) [1]: 1
- Urine Odor Ranking 5 (number of panelists) [1]: 2
- Urine Odor Ranking 7 (number of panelists) [1]: 1

Compound: CC(=O)Nc1ccc(Nc2cc(S(=O)(=O)[O-])c(N)c3c2C(=O)c2ccccc2C3=O)cc1.[Na+] [Acid Blue 40]
- Average Rankings (Group F), Avg. Score ([2]; Example 7 Group F): 3.8
- Urine Odor Ranking 1 (number of panelists) ([2]; Example 7 Group F): 1
- Urine Odor Ranking 2 (number of panelists) ([2]; Example 7 Group F): 1
- Urine Odor Ranking 3 (number of panelists) ([2]; Example 7 Group F): 1
- Urine Odor Ranking 4 (number of panelists) ([2]; Example 7 Group F): 1
- Urine Odor Ranking 9 (number of panelists) ([2]; Example 7 Group F): 1
- odor reduction performance (in words) ([3]; Example 5 Group B): performed well
- Average Rankings (Group B), Avg. Score ([3]; Example 5 Group B): 4.25
- Urine Odor Ranking 2 (number of panelists) ([3]; Example 5 Group B): 1
- Urine Odor Ranking 4 (number of panelists) ([3]; Example 5 Group B): 2
- Urine Odor Ranking 7 (number of panelists) ([3]; Example 5 Group B): 1
- Soluble? [4, 6]: Yes
- Soluble? [4, 7]: Somewhat

Compound: CC(=O)N(C)c1ccc(Nc2cc(S(=O)(=O)[O-])c(N)c3c2C(=O)c2ccccc2C3=O)cc1.[Na+] [Acid Blue 41]
- Average Rankings (Group C), Avg. Score ([2]; Example 7 Group C): 3.4
- Urine Odor Ranking 2 (number of panelists) ([2]; Example 7 Group C): 2
- Urine Odor Ranking 3 (number of panelists) ([2]; Example 7 Group C): 2
- Urine Odor Ranking 7 (number of panelists) ([2]; Example 7 Group C): 1
- Average Rankings (Group A), Avg. Score ([3]; Example 5 Group A): 5
- Urine Odor Ranking 4 (number of panelists) ([3]; Example 5 Group A): 1
- Urine Odor Ranking 5 (number of panelists) ([3]; Example 5 Group A): 2
- Urine Odor Ranking 6 (number of panelists) ([3]; Example 5 Group A): 1
- Soluble? [4, 6]: Yes
- Soluble? [4, 7]: Yes

Compound: Cc1cc(C)c(S(=O)(=O)[O-])c(C)c1Nc1ccc(Nc2c(C)cc(C)c(S(=O)(=O)[O-])c2C)c2c1C(=O)c1ccccc1C2=O.[Na+].[Na+] [Acid Blue 80]
- Average Rankings (Group F), Avg. Score ([2]; Example 7 Group F): 5.4
- Urine Odor Ranking 1 (number of panelists) ([2]; Example 7 Group F): 1
- Urine Odor Ranking 5 (number of panelists) ([2]; Example 7 Group F): 1
- Urine Odor Ranking 6 (number of panelists) ([2]; Example 7 Group F): 1
- Urine Odor Ranking 7 (number of panelists) ([2]; Example 7 Group F): 1
- Urine Odor Ranking 8 (number of panelists) ([2]; Example 7 Group F): 1
- Average Rankings (Group B), Avg. Score ([3]; Example 5 Group B): 6.25
- Urine Odor Ranking 4 (number of panelists) ([3]; Example 5 Group B): 1
- Urine Odor Ranking 5 (number of panelists) ([3]; Example 5 Group B): 1
- Urine Odor Ranking 8 (number of panelists) ([3]; Example 5 Group B): 2
- Soluble? [4, 6]: Yes
- Soluble? [4, 7]: Mostly

Compound: Cc1ccc(Nc2ccc(O)c3c2C(=O)c2ccccc2C3=O)c(S(=O)(=O)[O-])c1.[Na+] [Acid Violet 43]
- Average Rankings (Group D), Avg. Score ([2]; Example 7 Group D): 4.2
- Urine Odor Ranking 1 (number of panelists) ([2]; Example 7 Group D): 1
- Urine Odor Ranking 3 (number of panelists) ([2]; Example 7 Group D): 1
- Urine Odor Ranking 4 (number of panelists) ([2]; Example 7 Group D): 1
- Urine Odor Ranking 5 (number of panelists) ([2]; Example 7 Group D): 1
- Urine Odor Ranking 8 (number of panelists) ([2]; Example 7 Group D): 1
- Average Rankings (Group A), Avg. Score ([3]; Example 5 Group A): 4.75
- Urine Odor Ranking 2 (number of panelists) ([3]; Example 5 Group A): 2
- Urine Odor Ranking 7 (number of panelists) ([3]; Example 5 Group A): 1
- Urine Odor Ranking 8 (number of panelists) ([3]; Example 5 Group A): 1
- Soluble? [4, 6]: Yes
- Soluble? [4, 7]: No

Compound: O=C1c2ccccc2C(=O)c2c(Nc3cccc(S(=O)(=O)[O-])c3)c(Nc3ccc(S(=O)(=O)[O-])cc3)cc(O)c21.[Na+].[Na+] [Alizarin Blue Black B, Mordant Black 13 (Alizarin Blue Black B)]
- Average Rankings (Group C), Avg. Score ([2]; Example 7 Group C): 3
- Urine Odor Ranking 1 (number of panelists) ([2]; Example 7 Group C): 1
- Urine Odor Ranking 3 (number of panelists) ([2]; Example 7 Group C): 2
- Urine Odor Ranking 4 (number of panelists) ([2]; Example 7 Group C): 2
- odor reduction performance (in words) ([3]; Example 5 Group A): performed best
- Average Rankings (Group A), Avg. Score ([3]; Example 5 Group A): 1
- Urine Odor Ranking 1 (number of panelists) ([3]; Example 5 Group A): 4
- Average Rankings, Avg. Score [5]: 2.75
- Urine Odor Ranking 1 (number of panelists) [5]: 1
- Urine Odor Ranking 3 (number of panelists) [5]: 2
- Urine Odor Ranking 4 (number of panelists) [5]: 1
- Soluble? [4, 6]: Yes
- Soluble? [4, 7]: Yes

Compound: Cc1c(C(=O)O)c(O)cc2c1C(=O)c1c(O)c([C@@H]3O[C@H](CO)[C@@H](O)[C@H](O)[C@H]3O)c(O)c(O)c1C2=O [Carminic Acid, Natural Red 4 (Carminic Acid)]
- Average Rankings (Group E), Avg. Score ([2]; Example 7 Group E): 3.6
- Urine Odor Ranking 1 (number of panelists) ([2]; Example 7 Group E): 2
- Urine Odor Ranking 3 (number of panelists) ([2]; Example 7 Group E): 1
- Urine Odor Ranking 4 (number of panelists) ([2]; Example 7 Group E): 1
- Urine Odor Ranking 9 (number of panelists) ([2]; Example 7 Group E): 1

Compound: Cc1cc(O)c2c(c1)C(=O)c1cc(O)cc(O)c1C2=O [Emodin]
- Average Rankings (Group C), Avg. Score ([2]; Example 7 Group C): 7.8
- Urine Odor Ranking 5 (number of panelists) ([2]; Example 7 Group C): 1
- Urine Odor Ranking 8 (number of panelists) ([2]; Example 7 Group C): 2
- Urine Odor Ranking 9 (number of panelists) ([2]; Example 7 Group C): 2
- Soluble? [4, 7]: No

Compound: Nc1c(S(=O)(=O)O)cc(Nc2ccc(Nc3nc(Cl)nc(Nc4cccc(S(=O)(=O)O)c4)n3)c(S(=O)(=O)O)c2)c2c1C(=O)c1ccccc1C2=O [Procion Blue HB, Reactive Blue 2 (Procion Blue HB)]
- Average Rankings (Group F), Avg. Score ([2]; Example 7 Group F): 5.2
- Urine Odor Ranking 1 (number of panelists) ([2]; Example 7 Group F): 1
- Urine Odor Ranking 4 (number of panelists) ([2]; Example 7 Group F): 1
- Urine Odor Ranking 5 (number of panelists) ([2]; Example 7 Group F): 1
- Urine Odor Ranking 6 (number of panelists) ([2]; Example 7 Group F): 1
- Urine Odor Ranking 9 (number of panelists) ([2]; Example 7 Group F): 1
- Urine Odor Ranking 10 (number of panelists) ([2]; Example 7 Group F): 1
- Average Rankings (Group A), Avg. Score ([3]; Example 5 Group A): 6.5
- Urine Odor Ranking 5 (number of panelists) ([3]; Example 5 Group A): 1
- Urine Odor Ranking 6 (number of panelists) ([3]; Example 5 Group A): 1
- Urine Odor Ranking 7 (number of panelists) ([3]; Example 5 Group A): 1
- Urine Odor Ranking 8 (number of panelists) ([3]; Example 5 Group A): 1
- Average Rankings, Avg. Score [1]: 3.5
- Urine Odor Ranking 1 (number of panelists) [1]: 2
- Urine Odor Ranking 2 (number of panelists) [1]: 1
- Urine Odor Ranking 4 (number of panelists) [1]: 1
- Urine Odor Ranking 7 (number of panelists) [1]: 1
- Soluble? ([4]; Example 4, 8 millimolar in 50 milliliters of urine): Yes
- Soluble? [4, 6]: Yes
- Soluble? [4, 7]: Yes

Compound: Nc1c(S(=O)(=O)[O-])cc(Nc2cccc(S(=O)(=O)CCOS(=O)(=O)[O-])c2)c2c1C(=O)c1ccccc1C2=O.[Na+].[Na+] [Remazol Brilliant Blue R, Reactive Blue 19 (Remazol Brilliant Blue R)]
- Average Rankings (Group E), Avg. Score ([2]; Example 7 Group E): 3.4
- Urine Odor Ranking 1 (number of panelists) ([2]; Example 7 Group E): 1
- Urine Odor Ranking 2 (number of panelists) ([2]; Example 7 Group E): 2
- Urine Odor Ranking 3 (number of panelists) ([2]; Example 7 Group E): 1
- Urine Odor Ranking 9 (number of panelists) ([2]; Example 7 Group E): 1
- odor reduction performance (in words) ([3]; Example 5 Group B): performed well
- Average Rankings (Group B), Avg. Score ([3]; Example 5 Group B): 3
- Urine Odor Ranking 1 (number of panelists) ([3]; Example 5 Group B): 2
- Urine Odor Ranking 4 (number of panelists) ([3]; Example 5 Group B): 1
- Urine Odor Ranking 6 (number of panelists) ([3]; Example 5 Group B): 1
- Average Rankings, Avg. Score [5]: 4.75
- Urine Odor Ranking 2 (number of panelists) [5]: 1
- Urine Odor Ranking 3 (number of panelists) [5]: 1
- Urine Odor Ranking 7 (number of panelists) [5]: 2
- reducing urine odor (in words) [1]: most effective in reducing urine odor
- Average Rankings, Avg. Score [1]: 1.5
- Urine Odor Ranking 1 (number of panelists) [1]: 2
- Urine Odor Ranking 2 (number of panelists) [1]: 2

Compound: CCNc1ccc(NCC)c2c1C(=O)c1ccccc1C2=O [Solvent Blue 59]
- Average Rankings, Avg. Score [1]: 5.25
- Urine Odor Ranking 3 (number of panelists) [1]: 1
- Urine Odor Ranking 5 (number of panelists) [1]: 1
- Urine Odor Ranking 6 (number of panelists) [1]: 1
- Urine Odor Ranking 7 (number of panelists) [1]: 1

Compound: Cc1ccc(Nc2ccc(Nc3ccc(C)cc3)c3c2C(=O)c2ccccc2C3=O)cc1 [Solvent Green 3]
- Average Rankings, Avg. Score [1]: 3.75
- Urine Odor Ranking 2 (number of panelists) [1]: 1
- Urine Odor Ranking 3 (number of panelists) [1]: 1
- Urine Odor Ranking 4 (number of panelists) [1]: 1
- Urine Odor Ranking 6 (number of panelists) [1]: 1

Compound: Acid Black 48
- Average Rankings (Group C), Avg. Score ([2]; Example 7 Group C): 7.2
- Urine Odor Ranking 2 (number of panelists) ([2]; Example 7 Group C): 1
- Urine Odor Ranking 6 (number of panelists) ([2]; Example 7 Group C): 1
- Urine Odor Ranking 8 (number of panelists) ([2]; Example 7 Group C): 1
- Urine Odor Ranking 10 (number of panelists) ([2]; Example 7 Group C): 2
- Soluble? [4, 7]: Somewhat
